Test results: ChEMBL document CHEMBL1142956, “Small molecule inhibitors of histone arginine methyltransferases: homology modeling, molecular docking, binding mode analysis, and biological evaluations” (J Med Chem, 2007)

Experiments:
RmtA = RmtA (Emericella nidulans, UniProt Q5VLE3); test: Inhibition of Aspergillus nidulans recombinant GST-RmtA expressed in BL21 cells
[1] = target: Protein arginine N-methyltransferase 1 (Homo sapiens, UniProt Q99873); test: Inhibition of human recombinant GST-PRMT1 expressed in BL21 cells

O=C(Nc1ccccc1)Nc1ccc2c(O)cc(S(=O)(=O)O)cc2c1
IC50 (RmtA): 1080 µM

Nc1ccc(C(=O)O)c(-c2c3ccc(=O)cc-3oc3cc(O)ccc23)c1
IC50 (RmtA): 710 µM

O=C1NC(=O)C(=Nn2c(=O)[nH]c(=O)[nH]c2=O)C(=O)N1
IC50 [1]: > 164 µM | IC50 (RmtA): > 164 µM

Nc1ccc2c(O)cc(S(=O)(=O)O)cc2c1
IC50 (RmtA): 590 µM

Nc1c(Br)cc(C(=O)O)c(-c2c3cc(Br)c(=O)c(Br)c-3oc3c(Br)c(O)c(Br)cc23)c1Br
IC50 [1]: 4.8 µM | IC50 (RmtA): 22.3 µM

CN(C)c1ccc(/N=N/c2ccc(S(=O)(=O)O)cc2)cc1
IC50 (RmtA): 490 µM

O=C(O)c1ccc(Nc2nc(Cl)nc(Cl)n2)cc1
IC50 (RmtA): 406 µM

O=C(Nc1ccc2c(O)cc(S(=O)(=O)O)cc2c1)Nc1ccc2c(O)cc(S(=O)(=O)O)cc2c1
IC50 (RmtA): 88 µM

CC1=CC(=O)C(C(C)C)=C/C1=C(/c1cc(C(C)C)c(O)cc1C)c1ccccc1C(=O)O
IC50 [1]: > 217 µM | IC50 (RmtA): > 217 µM

O=C1C=CC(=C(c2ccc(O)cc2)c2ccccc2S(=O)(=O)O)C=C1
IC50 (RmtA): > 263 µM

O=C(O)c1ccc(Nc2nc(Cl)nc(Cl)n2)cc1-c1c2ccc(=O)cc-2oc2cc(O)ccc12
IC50 (RmtA): 73 µM

O=C1C=CC(=C(c2ccc(O)cc2)c2ccccc2C(=O)O)C=C1
IC50 [1]: 885 µM | IC50 (RmtA): 296 µM

CC1=C(CN(CC(=O)O)CC(=O)O)C(=O)C(C(C)C)=C/C1=C(\c1ccccc1S(=O)(=O)O)c1cc(C(C)C)c(O)c(CN(CC(=O)O)CC(=O)O)c1C
IC50 [1]: > 34 µM | IC50 (RmtA): > 34 µM

O=c1cc2oc3cc(O)c(O)cc3c(-c3ccccc3)c-2cc1O
IC50 (RmtA): 160 µM

O=[N+]([O-])c1ccc2c(/N=N/c3cccc4ccccc34)c(O)cc(S(=O)(=O)O)c2c1
IC50 (RmtA): 103 µM

CN(C)c1ccc(/N=N/c2ccccc2C(=O)O)cc1
IC50 (RmtA): 2100 µM

O=C(O)c1ccccc1-c1c2cc(Br)c(=O)c(Br)c-2oc2c(Br)c(O)c(Br)cc12
IC50 [1]: 1.4 µM | IC50 (RmtA): 0.18 µM

O=S(=O)(O)c1cc(O)c2ccc(NC(=S)Nc3ccccc3)cc2c1
IC50 (RmtA): 1360 µM

Nc1cc(S(=O)(=O)O)cc2cc(S(=O)(=O)O)cc(O)c12
IC50 (RmtA): 220 µM

O=C1c2ccccc2C(=O)c2c1ccc(O)c2O [ATHRAQUINONES A]
IC50 (RmtA): 1220 µM

COc1cc(/C=C/C(=O)CC(=O)/C=C/c2ccc(O)c(OC)c2)ccc1O [CURCUMIN]
IC50 (RmtA): 1100 µM

O=C1OC2(c3ccc(O)cc3Oc3cc(O)ccc32)c2ccccc21 [FLUORESCEIN]
IC50 (RmtA): 123 µM

Cc1cc(C(=C2C=CC(=N)C=C2)c2ccc(N)cc2)ccc1N [FUCHSIN, BASIC]
IC50 (RmtA; bl21): 515 µM

O=C1NS(=O)(=O)c2ccccc21 [SACCHARIN]
IC50 [1]: > 510 µM | IC50 (RmtA): > 510 µM

Cc1ccc(C(=O)Nc2ccc(S(=O)(=O)O)c3cc(S(=O)(=O)O)cc(S(=O)(=O)O)c23)cc1NC(=O)c1cccc(NC(=O)Nc2cccc(C(=O)Nc3cc(C(=O)Nc4ccc(S(=O)(=O)O)c5cc(S(=O)(=O)O)cc(S(=O)(=O)O)c45)ccc3C)c2)c1 [SURAMIN]
IC50 [1]: 18.1 µM | IC50 (RmtA): 5.9 µM
